Tests used:
[1] = Earlier clinical investigations of romidepsin: observed toxicities and deaths; details: early development; out of more than 450 patients
[2] = Accelerated romidepsin dosing, clinical trial experience (unit doses given intravenously over about one hour or less)
[3] = human, in vivo
[4] = patient five, (Breast Cancer), 8 mg/m^2
[5] = patient four, (Breast Cancer), 8 mg/m^2
[6] = patient two, (Multiple Myeloma), 10 mg/m^2
[7] = patient, (Multiple Myeloma), 8 mg/m^2

## C/C=C1\NC(=O)[C@H]2CSSCC/C=C/[C@H](CC(=O)N[C@H](C(C)C)C(=O)N2)OC(=O)[C@H](C(C)C)NC1=O [romidepsin, (1S,4S,10S,16E,21R)-7-[(2Z)-ethylidene]-4,21-diisopropyl-2-oxa-12,13-dithia-5,8,20,23-tetraazabicyclo[8.7.6]tricos-16-ene-3,6,9,19,22-pentanone]
[1]
  deaths during clinical investigations: 6
[2]; 15 patients on accelerated dosing regimens
  electrocardiogram findings, lab abnormalities, adverse events, and serious adverse events overall: consistent with the results seen in prior clinical trials utilizing romidepsin
[2]; [4]
  Clinically Significant Lab Abnormalities: None
  Related SAEs: None
[2]; patient five, (Breast Cancer), 8 mg/m^2, full wrapped cell: Nonspecific T wave changes, low QRS voltages, tachycardia, possible anterior infarction, left atrial abnormality
  ECG Findings (Machine Alerts): Nonspecific T wave
[2]; patient five, GPI-06-0005 (Breast Cancer), 8 mg/m^2 on Days 1, 8, and 15 of Cycle 2 and beyond, 6 accelerated doses, full wrapped cell: Fatigue, dysphagia, dizziness
  Related Adverse Events: Fatigue,
[2]; [5]
  Clinically Significant Lab Abnormalities: None
  Related SAEs: None
[2]; patient four, (Breast Cancer), 8 mg/m^2, full wrapped cell: Left anterior fascicular block, low QRS voltages, nonspecific T wave changes, possible left ventricular hypertrophy, possible anterior infarction, tachycardia, sinus arrhythmia
  ECG Findings (Machine Alerts): Left anterior
[2]; patient four, GPI-06-0005 (Breast Cancer), 8 mg/m^2 on Days 1, 8, and 15 of Cycle 2 and beyond, 5 accelerated doses, full wrapped cell: Fatigue, vomiting, anemia, anorexia
  Related Adverse Events: Fatigue,
[2]; patient one, (Multiple Myeloma), 10 mg/m^2
  Related SAEs: None
[2]; patient one, (Multiple Myeloma), 10 mg/m^2, full wrapped cell: Sinus tachycardia, nonspecific ST changes, low QRS voltages, junctional depression prior to baseline
  ECG Findings (Machine Alerts): Sinus tachycardia,
[2]; patient one, (Multiple Myeloma), 10 mg/m^2, full wrapped cell: Thrombocytopenia, anemia, neutropenia, increased serum creatinine, hyperpcalcemia
  Clinically Significant Lab Abnormalities: Thrombocytopenia,
[2]; patient one, GPI-08-0006 (Multiple Myeloma), 10 mg/m^2 on Days 1, 8, and 15 of Cycle 1 and beyond, 2 accelerated doses, full wrapped cell: Flushing, cold feeling, nausea, vomiting, back pain, canker sore, fatigue, UTI, hypokalemia, hypophosphatemia
  Related Adverse Events: Flushing,
[2]; patient three, (Multiple Myeloma), 10 mg/m^2
  Related SAEs: None
[2]; patient three, (Multiple Myeloma), 10 mg/m^2, full wrapped cell: Nonspecific T waves changes possibly due to myocardial ischemia, results consistent with baseline ECGs
  ECG Findings (Machine Alerts): Nonspecific T waves
[2]; patient three, (Multiple Myeloma), 10 mg/m^2, full wrapped cell: Thrombocytopenia, anemia, neutropenia
  Clinically Significant Lab Abnormalities: Thrombocytopenia,
[2]; patient three, GPI-08-0006 (Multiple Myeloma), 10 mg/m^2 on Days 1, 8, and 15 of Cycle 1 and beyond, 13 accelerated doses, full wrapped cell: Nausea, vomiting, flushing, constipation, headache, body aches, abdominal pain, diarrhea, bloating, vein erythema
  Related Adverse Events: Nausea,
[2]; [6]
  QTC (ECG machine alert): close to 450
  Related SAEs: None
[2]; patient two, (Multiple Myeloma), 10 mg/m^2, full wrapped cell: T wave changes, conduction defect of right bundle branch block, low QRS spatial velocity, QTC close to 450
  ECG Findings (Machine Alerts): T wave changes,
[2]; patient two, (Multiple Myeloma), 10 mg/m^2, full wrapped cell: Thrombocytopenia, anemia, neutropenia, increased serum creatinine
  Clinically Significant Lab Abnormalities: Thrombocytopenia,
[2]; patient two, GPI-08-0006 (Multiple Myeloma), 10 mg/m^2 on Days 1, 8, and 15 of Cycle 1 and beyond, 2 accelerated doses, full wrapped cell: Knee pain, headache, skin crawling, cold feet, malaise, bowel urgency, nausea, vomiting
  Related Adverse Events: Knee pain,
[2]; patient, 78 kg, 26 mg on days 1, 8, and 15 of 28 day cycle, accelerated dose Day 15 of cycle 8, full wrapped cell: Nausea, vomiting and diarrhoea, heamaturia
  Adverse Events reported directly after infusion: Nausea,
[2]; patient, 78 kg, 26 mg, accelerated dose Day 15 of cycle 8, full wrapped cell: Hypocalcaemia noted
  LAB: Hypocalcaemia
[2]; patient, 78 kg, 26 mg, accelerated dose Day 15 of cycle 8, full wrapped cell: Post infusion ECG - peaked T waves laterally and subtle ST depression laterally but otherwise normal ECG next day was normal
  ECG: Post infusion
[2]; patient, 95.8 Kg, 30.5 mg on days 1, 8, and 15 of 28 day cycle, accelerated dose Day 1 of cycle 8
  Adverse Events reported directly after infusion: None
[2]; patient, 95.8 Kg, 30.5 mg, accelerated dose Day 1 of cycle 8, asymptomatic
  lateral ST depression on post infusion ECG: of 1 mm.
[2]; patient, 95.8 Kg, 30.5 mg, accelerated dose Day 1 of cycle 8, full wrapped cell: No immediate effect but hypocalcaemia later
  LAB: No immediate
[2]; patient, 95.8 Kg, 30.5 mg, accelerated dose Day 1 of cycle 8, full wrapped cell: Post infusion ECG asymptomatic - showed some lateral ST depression of 1 mm. ECG 2 hours later showed improvement
  ECG: Post infusion
[2]; patient, 103 Kg, (Multiple Myeloma), 10 mg/m^2
  Related SAEs: None
[2]; patient, 103 Kg, (Multiple Myeloma), 10 mg/m^2, full wrapped cell: Nonspecific T wave changes, ST junctional depression
  ECG Findings (Machine Alerts): Nonspecific T wave
[2]; patient, 103 Kg, (Multiple Myeloma), 10 mg/m^2, full wrapped cell: Thrombocytopenia, anemia, neutropenia, hypoalbuminemia
  Clinically Significant Lab Abnormalities: Thrombocytopenia,
[2]; patient, 103 Kg, GPI-08-0006 (Multiple Myeloma), 10 mg/m^2 on Days 1, 8, and 15 of Cycle 1 and beyond, 4 accelerated doses, full wrapped cell: Nausea, thrombocytopenia, fatigue, vein erythema, vomiting
  Related Adverse Events: Nausea,
[2]; patient, 13 mg on days 1, 8, and 15 of 28 day cycle, accelerated dose Day 15 of cycle 2
  Adverse Events reported directly after infusion: None
[2]; patient, 13 mg, accelerated dose Day 15 of cycle 2, full wrapped cell: No abnormalities
  LAB: No
[2]; patient, 13 mg, accelerated dose Day 15 of cycle 2, full wrapped cell: Post dose ECGs taken on same day and next day, no abnormalities notes
  ECG: Post dose
[2]; patient, (Giant Cell), 12 mg/m^2
  Related SAEs: None
[2]; patient, (Melanoma), 8 mg/m^2
  Clinically Significant Lab Abnormalities: None
  Related SAEs: None
[2]; patient, (Melanoma), 8 mg/m^2, full wrapped cell: Nonspecific T wave changes possibly due to myocardial ischemia, low QRS voltages, sinus tachycardia, possible inferior infarction
  ECG Findings (Machine Alerts): Nonspecific T wave
[2]; [7]
  Clinically Significant Lab Abnormalities: None
  Related SAEs: None
[2]; patient, (Multiple Myeloma), 10 mg/m^2, full wrapped cell: T wave inversion, low QRS voltages, reversed R wave progression
  ECG Findings (Machine Alerts): T wave inversion,
[2]; patient, (Multiple Myeloma), 10 mg/m^2, full wrapped cell: Thrombocytopenia, anemia, neutropenia, hypoalbuminemia, hypokalemia
  Clinically Significant Lab Abnormalities: Thrombocytopenia,
[2]; patient, (Multiple Myeloma), 10 mg/m^2, full wrapped cell: Vomiting, headache, dehydration
  Related SAEs: Vomiting,
[2]; patient, (NHL), 8 mg/m^2
  Clinically Significant Lab Abnormalities: None
  Related SAEs: None
[2]; patient, (NHL), 8 mg/m^2, full wrapped cell: Probable normal variant, borderline lateral T wave changes, low QRS voltages
  ECG Findings (Machine Alerts): Probable normal
[2]; patient, (Ovarian Cancer), 12 mg/m^2, full wrapped cell: Atrial fibrillation
  Related SAEs: Atrial
[2]; patient, GPI-06-0005 (Melanoma), 8 mg/m^2 on Days 1, 8, and 15 of Cycle 2 and beyond, 3 accelerated doses, full wrapped cell: Fatigue, vomiting
  Related Adverse Events: Fatigue,
[2]; patient, GPI-06-0005 (NHL), 8 mg/m^2 on Days 1, 8, and 15 of Cycle 2 and beyond, 3 accelerated doses
  Related Adverse Events: Fatigue
[2]; patient, GPI-08-0006 (Multiple Myeloma), 8 mg/m^2 on Days 1, 8, and 15 of Cycle 1 and beyond, 4 accelerated doses
  ECG Findings (Machine Alerts): None
[2]; patient, GPI-08-0006 (Multiple Myeloma), 10 mg/m^2 on Days 1, 8, and 15 of Cycle 1 and beyond, 1 accelerated dose, full wrapped cell: Nausea, vomiting, headache, dehydration
  Related Adverse Events: Nausea,
[2]; unit doses over less than about one hour
  rate of serious adverse events vs unit doses administered over about 4 hours: without increasing the rate of serious adverse events
[3]
  serial serum troponin levels and multiple gated acquisition (MUGA) scans: consistently normal
  severity of observed toxicities: mild to moderate

Source: patent publication US20100152100A1, “ACCELERATED THERAPY” (Gloucester Pharmaceuticals, Inc., priority 2008, published 2010)
